Experimental data published in patent US6680003B2, “Chiral doping agents with variable spiral pitch induction and application thereof to a reflective color display” (Asulab S.A., priority 2000, dated 2004).

Experiment: Solubility in a nematic

“2-[4′-(6-Acryloyloxyhexyloxy)-2′.5′-methylazophenyl-4-carbonyloy]—5-[4-(6-Acryloyloxyhexyloxy)benzoyl]-1.4:3.6-D-glucitol [Compound 209sf]” showed a Solubility s of 4.0% < s % mass.
